From ChEMBL document CHEMBL3098111, “Discovery of 2,5-diarylnicotinamides as selective orexin-2 receptor antagonists (2-SORAs)” (Bioorg Med Chem Lett, 2013) come the findings set out here.

Structures are written as SMILES.

By inhibition is commonly meant the change of the read-out against control, counted positive when it falls.

The target in assay [1] is Nociceptin receptor (Homo sapiens) (UniProt P41146). As to the kind of experiment: Inhibition of human ORL1 receptor at 10 uM relative to control.
Chain of Nociceptin receptor (Homo sapiens) (P41146 whole entry): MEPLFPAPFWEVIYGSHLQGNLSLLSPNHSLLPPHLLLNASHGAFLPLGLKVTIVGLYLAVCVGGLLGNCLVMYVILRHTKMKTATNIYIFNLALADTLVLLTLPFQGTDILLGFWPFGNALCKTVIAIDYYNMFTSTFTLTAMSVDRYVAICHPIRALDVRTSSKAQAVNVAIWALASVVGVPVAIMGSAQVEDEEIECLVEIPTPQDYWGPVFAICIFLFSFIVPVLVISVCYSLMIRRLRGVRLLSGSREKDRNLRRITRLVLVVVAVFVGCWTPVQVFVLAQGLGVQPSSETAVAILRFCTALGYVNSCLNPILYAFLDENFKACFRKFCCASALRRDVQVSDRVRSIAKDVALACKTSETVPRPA
The species named for another assay is Cavia porcellus. Description: Inhibition of guinea pig adenosine transporter at 0.1 uM relative to control.
The target in assay [2] is T1, 5-hydroxytryptamine receptor 1A (Homo sapiens) (UniProt P08908).
T1 sequence (whole entry): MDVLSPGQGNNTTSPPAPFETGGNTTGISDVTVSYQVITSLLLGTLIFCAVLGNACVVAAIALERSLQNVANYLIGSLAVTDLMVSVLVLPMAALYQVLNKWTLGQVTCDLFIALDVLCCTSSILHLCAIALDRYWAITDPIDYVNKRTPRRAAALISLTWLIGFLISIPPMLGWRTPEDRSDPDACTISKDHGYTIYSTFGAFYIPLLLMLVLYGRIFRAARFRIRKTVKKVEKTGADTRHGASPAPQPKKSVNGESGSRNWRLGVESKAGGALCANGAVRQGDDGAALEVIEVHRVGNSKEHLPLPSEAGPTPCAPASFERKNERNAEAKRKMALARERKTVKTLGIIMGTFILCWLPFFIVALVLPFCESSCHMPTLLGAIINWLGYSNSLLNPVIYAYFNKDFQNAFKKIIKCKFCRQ
Description: Inhibition of human 5-HT1A receptor at 1 uM relative to control.

For assay [3], the target named is Prostaglandin E2 receptor EP1 subtype (Homo sapiens) (UniProt P34995). As to the kind of experiment: Inhibition of human prostanoid EP1 receptor at 10 uM relative to control.
Chain of Prostaglandin E2 receptor EP1 subtype (Homo sapiens) (P34995 whole entry): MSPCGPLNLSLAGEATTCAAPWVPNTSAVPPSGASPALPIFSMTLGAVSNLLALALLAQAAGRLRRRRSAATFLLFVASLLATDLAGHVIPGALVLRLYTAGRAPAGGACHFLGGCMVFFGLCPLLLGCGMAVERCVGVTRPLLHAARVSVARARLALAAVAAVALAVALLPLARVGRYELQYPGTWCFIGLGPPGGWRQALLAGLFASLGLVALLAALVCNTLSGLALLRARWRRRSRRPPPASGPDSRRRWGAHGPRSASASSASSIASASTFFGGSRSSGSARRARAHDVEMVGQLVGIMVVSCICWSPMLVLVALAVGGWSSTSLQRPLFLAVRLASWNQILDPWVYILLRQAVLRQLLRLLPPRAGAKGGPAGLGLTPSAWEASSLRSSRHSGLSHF
Assay [4] concerns the target 5-hydroxytryptamine receptor 6 (Homo sapiens) (UniProt P50406). Description: Inhibition of human 5-HT6 receptor at 10 uM relative to control.
In assay [5] the target is Muscarinic acetylcholine receptor M3 (Homo sapiens) (UniProt P20309). Description: Inhibition of human muscarinic M3 receptor at 10 uM relative to control.
Chain of Muscarinic acetylcholine receptor M3 (Homo sapiens) (P20309 whole entry, looked up): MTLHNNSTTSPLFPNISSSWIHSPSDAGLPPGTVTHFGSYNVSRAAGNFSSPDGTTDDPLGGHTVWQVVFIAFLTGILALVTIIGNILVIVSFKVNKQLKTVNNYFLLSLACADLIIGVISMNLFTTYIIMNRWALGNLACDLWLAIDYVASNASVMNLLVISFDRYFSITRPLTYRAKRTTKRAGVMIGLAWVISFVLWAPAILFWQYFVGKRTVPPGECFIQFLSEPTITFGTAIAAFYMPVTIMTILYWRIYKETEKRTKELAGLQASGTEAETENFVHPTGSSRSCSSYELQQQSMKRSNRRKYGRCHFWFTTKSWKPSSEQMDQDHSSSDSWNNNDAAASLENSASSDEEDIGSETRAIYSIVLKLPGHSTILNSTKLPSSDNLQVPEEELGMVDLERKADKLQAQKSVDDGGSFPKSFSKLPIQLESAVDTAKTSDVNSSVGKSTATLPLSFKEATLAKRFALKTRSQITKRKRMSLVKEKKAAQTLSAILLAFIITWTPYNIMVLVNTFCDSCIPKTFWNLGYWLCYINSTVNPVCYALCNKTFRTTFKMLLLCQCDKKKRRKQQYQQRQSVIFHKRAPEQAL
In assay [6] the target is Histamine H4 receptor (Homo sapiens) (UniProt Q9H3N8). Description: Inhibition of human histamine H4 receptor at 10 uM relative to control.
Chain of Histamine H4 receptor (Homo sapiens) (Q9H3N8 whole entry): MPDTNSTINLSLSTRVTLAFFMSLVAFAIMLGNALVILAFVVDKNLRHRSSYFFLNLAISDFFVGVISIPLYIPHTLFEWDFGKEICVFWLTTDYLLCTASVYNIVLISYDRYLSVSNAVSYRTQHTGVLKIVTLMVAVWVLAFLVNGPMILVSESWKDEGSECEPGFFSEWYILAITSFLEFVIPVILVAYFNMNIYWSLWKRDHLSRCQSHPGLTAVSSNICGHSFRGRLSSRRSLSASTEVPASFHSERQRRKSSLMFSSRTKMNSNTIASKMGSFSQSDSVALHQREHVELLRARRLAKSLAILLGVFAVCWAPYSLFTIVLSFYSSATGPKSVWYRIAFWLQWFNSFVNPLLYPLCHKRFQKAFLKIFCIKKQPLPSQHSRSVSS
For assay [7], the target named is Pro-epidermal growth factor (Homo sapiens) (UniProt P01133). Description: Inhibition of human EGF at 10 uM relative to control.
Chain of Pro-epidermal growth factor (Homo sapiens) (P01133 whole entry): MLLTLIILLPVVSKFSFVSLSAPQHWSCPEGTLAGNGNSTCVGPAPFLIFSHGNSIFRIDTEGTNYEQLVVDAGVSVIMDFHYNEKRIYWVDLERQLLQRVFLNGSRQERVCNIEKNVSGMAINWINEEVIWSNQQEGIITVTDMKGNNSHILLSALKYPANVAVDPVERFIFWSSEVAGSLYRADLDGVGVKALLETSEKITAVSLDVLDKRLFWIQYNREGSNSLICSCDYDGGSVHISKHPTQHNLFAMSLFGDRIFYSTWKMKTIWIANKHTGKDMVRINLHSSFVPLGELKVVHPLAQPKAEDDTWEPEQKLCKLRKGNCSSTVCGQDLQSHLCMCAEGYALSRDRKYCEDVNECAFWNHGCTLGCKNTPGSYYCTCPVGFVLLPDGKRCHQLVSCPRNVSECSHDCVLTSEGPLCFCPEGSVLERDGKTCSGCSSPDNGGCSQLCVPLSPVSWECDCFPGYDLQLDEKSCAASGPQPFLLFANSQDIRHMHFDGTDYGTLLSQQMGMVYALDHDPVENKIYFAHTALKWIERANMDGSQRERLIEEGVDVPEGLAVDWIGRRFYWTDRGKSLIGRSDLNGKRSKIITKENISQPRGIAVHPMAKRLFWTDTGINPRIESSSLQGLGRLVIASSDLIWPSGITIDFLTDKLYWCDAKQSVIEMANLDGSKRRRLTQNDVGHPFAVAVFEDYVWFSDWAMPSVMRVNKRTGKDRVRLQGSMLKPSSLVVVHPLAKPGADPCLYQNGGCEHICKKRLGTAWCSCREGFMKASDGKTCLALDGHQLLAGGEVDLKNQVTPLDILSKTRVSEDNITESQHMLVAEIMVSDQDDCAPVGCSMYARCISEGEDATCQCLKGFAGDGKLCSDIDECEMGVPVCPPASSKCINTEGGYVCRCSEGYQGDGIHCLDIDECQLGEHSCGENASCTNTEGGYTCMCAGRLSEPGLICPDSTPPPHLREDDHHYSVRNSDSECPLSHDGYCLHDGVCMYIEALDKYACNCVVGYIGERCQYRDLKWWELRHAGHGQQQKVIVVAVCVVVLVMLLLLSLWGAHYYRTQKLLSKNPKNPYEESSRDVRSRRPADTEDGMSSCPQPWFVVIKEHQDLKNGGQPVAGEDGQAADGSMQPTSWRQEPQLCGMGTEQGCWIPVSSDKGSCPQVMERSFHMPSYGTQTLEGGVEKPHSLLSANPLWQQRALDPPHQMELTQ
The target in assay [8] is Tyrosine 3-monooxygenase (Rattus norvegicus) (UniProt P04177). Description: Inhibition of rat tyrosine hydroxylase at 10 uM relative to control.
Chain of Tyrosine 3-monooxygenase (Rattus norvegicus) (P04177 whole entry): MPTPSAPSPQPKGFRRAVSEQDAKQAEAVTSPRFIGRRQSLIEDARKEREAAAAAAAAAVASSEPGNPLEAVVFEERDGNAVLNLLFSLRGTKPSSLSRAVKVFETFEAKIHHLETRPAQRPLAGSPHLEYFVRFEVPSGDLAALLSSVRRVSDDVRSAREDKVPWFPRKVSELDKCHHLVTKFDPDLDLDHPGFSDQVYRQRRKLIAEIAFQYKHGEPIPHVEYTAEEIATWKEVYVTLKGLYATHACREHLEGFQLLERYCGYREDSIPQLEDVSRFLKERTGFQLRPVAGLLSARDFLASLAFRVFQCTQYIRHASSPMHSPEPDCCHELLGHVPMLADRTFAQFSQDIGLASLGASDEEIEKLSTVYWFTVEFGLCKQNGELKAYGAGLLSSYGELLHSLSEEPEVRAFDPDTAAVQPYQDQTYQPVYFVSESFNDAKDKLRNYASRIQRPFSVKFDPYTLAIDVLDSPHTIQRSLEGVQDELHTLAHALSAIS
For assay [9], the target named is Neuropeptide Y receptor type 2 (Homo sapiens) (UniProt P49146). As to the kind of experiment: Inhibition of human neuropeptide YY2 receptor at 10 uM relative to control.
The target of assay [10] is Somatostatin receptor type 4 (Homo sapiens) (UniProt P31391). As to the kind of experiment: Inhibition of human SST4 receptor at 10 uM relative to control.
The target of assay [11] is Neuropeptide Y receptor type 1 (Homo sapiens) (UniProt P25929). As to the kind of experiment: Inhibition of human neuropeptide YY1 receptor at 10 uM relative to control.
Chain of Neuropeptide Y receptor type 1 (Homo sapiens) (P25929 whole entry): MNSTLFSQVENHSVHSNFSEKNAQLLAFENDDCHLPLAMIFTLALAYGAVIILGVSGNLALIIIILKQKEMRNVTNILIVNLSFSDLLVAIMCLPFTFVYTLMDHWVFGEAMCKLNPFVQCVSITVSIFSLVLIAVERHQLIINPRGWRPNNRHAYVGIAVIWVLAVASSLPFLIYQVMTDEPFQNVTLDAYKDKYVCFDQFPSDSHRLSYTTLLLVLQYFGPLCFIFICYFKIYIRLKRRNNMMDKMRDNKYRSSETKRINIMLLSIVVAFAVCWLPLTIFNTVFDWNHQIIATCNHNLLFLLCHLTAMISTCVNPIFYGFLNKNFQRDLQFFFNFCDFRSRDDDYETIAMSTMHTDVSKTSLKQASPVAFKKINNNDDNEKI
Assay [12] deals with Cholecystokinin receptor type A (Homo sapiens) (UniProt P32238). Description: Inhibition of human CCKA receptor at 10 uM relative to control.
Chain of Cholecystokinin receptor type A (Homo sapiens) (P32238 whole entry): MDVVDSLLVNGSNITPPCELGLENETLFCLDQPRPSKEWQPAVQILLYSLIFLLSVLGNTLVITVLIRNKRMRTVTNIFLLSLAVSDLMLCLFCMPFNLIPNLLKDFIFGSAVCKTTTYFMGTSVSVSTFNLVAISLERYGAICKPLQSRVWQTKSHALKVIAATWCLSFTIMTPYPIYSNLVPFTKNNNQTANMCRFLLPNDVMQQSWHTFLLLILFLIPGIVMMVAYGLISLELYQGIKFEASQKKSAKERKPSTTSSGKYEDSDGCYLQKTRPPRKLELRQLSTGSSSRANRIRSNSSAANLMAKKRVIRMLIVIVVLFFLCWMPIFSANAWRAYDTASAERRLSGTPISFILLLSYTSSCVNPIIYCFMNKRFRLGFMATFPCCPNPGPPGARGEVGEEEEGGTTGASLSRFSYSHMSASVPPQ

Chain of 5-hydroxytryptamine receptor 6 (Homo sapiens) (P50406 whole entry): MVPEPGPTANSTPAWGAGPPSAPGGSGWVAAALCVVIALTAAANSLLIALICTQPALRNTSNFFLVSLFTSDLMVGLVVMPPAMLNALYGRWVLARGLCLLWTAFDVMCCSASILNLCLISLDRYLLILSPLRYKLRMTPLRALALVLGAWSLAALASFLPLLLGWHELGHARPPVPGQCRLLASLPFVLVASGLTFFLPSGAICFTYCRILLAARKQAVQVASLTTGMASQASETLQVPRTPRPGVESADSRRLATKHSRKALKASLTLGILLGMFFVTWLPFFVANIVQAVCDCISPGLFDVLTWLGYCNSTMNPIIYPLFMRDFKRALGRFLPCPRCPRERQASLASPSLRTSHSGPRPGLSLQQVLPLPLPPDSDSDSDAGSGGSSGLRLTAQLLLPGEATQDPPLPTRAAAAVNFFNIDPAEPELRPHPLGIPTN

Consider `COc1ccc(CNC(=O)c2cc(-c3cc(Cl)cc(Cl)c3)cnc2-c2cccnc2)cc1OC`, for which the inhibition was 9% in assay [1]; 15% in the assay filed under Cavia porcellus; 41% in assay [2]; 10% in assay [3]; -8% in [4]; -2% in [5]. Further, the inhibition in assay [6] was 9%; in [7], 7%; in assay [8] it was -3%; in assay [9], 0%; in assay [10], 5%; in assay [11], 23%. Moreover, the inhibition in [12] is 9%.
